According to patent US4837238A, “Pharmacologically useful pyrazolopyridines” (Beecham Group p.l.c., priority 1985, dated 1989):

What was measured:
Format in all cases: in vivo
cantharidin mouse ear = assay: Mouse cantharidin screen (topical anti-inflammatory activity, mouse ear); conditions: 500 μg/ear, 25 μg cantharidin, 24 h, ***P < 0.001
Protocol: Compounds were tested for topical anti-inflammatory activity in a cantharidin mouse ear screen, modified from Swingle, K. F., Reiter, M. J. and Schwartzmiller, D. H., Arch. Int. Pharmacodyn., (1981), 254, 168-176).
(a) 25 μg cantharidin (in 10 μl THF/MeOH) was applied to both ears. Compound, in the same solvent, was applied at the same time, to the left ear only. Ears were weighed 24 h after cantharidin application. Percentage inhibition of the acute inflammatory swelling refers to the increase in weight of left ears (cantharidine plus compound) compared with solvent-treated negative controls, as a proportion of the increase in weight of right ears (cantharidin alone) over similar controls.

[1] = system: Carrageenin-induced pleurisy in the rat; assay: Carrageenin-induced pleurisy in the rat (monocyte accumulation); conditions: 25 mg/kg p.o., 1 hour before and 24 and 48 hours after carrageenin, 72 hours; compared to control (p<0.05)
Protocol: This model of monocyte accumulation is based on the method of R. Vinegar, J. F. Truax, J. L. Selph and F. A. Voelker [Federation Proceedings 41, 2588-2595, 1982].
0.2 ml of a 2.0% solution of λ-carrageenin (Viscarin 402) in saline was injected intrapleurally in anaesthetised rats (wt. approx. 175-200 g). Compounds were administered 1 hour before carrageenin and at 24 and 48 hours after carrageenin. 72 hours after carrageenin injection, 4.0 ml of EDTA solution (5 g EDTA in 100 ml of 0.9% saline and 325 mg phenol red added together with saline to 1 liter) was injected intrapleurally after killing the animals, and the exudate was removed with a syringe through the diaphragm. Exudate volume was calculated from the dilution of the phenol red injected, determined spectrophotometrically (560 nm) and cellular content estimated with a DNA assay [Karsten U. and Wollenberger A. Anal. Biochem. 77, 464-470, 1977].

[2] = system: mouse sensitized to oxazolone; assay: Mouse oxazolone screen (topical anti-inflammatory activity, sensitized mouse ear); conditions: 200 μg/ear, 1 hour before 100 μg oxazolone challenge, 24 hours, **p < 0.01, ***p < 0.001
Protocol: Compounds were tested for topical anti-inflammatory activity in a screen using the mouse sensitized to oxazolone, by a method modified from that of Dietrich and Hess [Int. Arch. Allergy, 38, 246 (1970)].
Mice were sensitized with oxazolone (2 mg in 20 μl EtOH) on a shaved area of the abdomen. 5 days later, the animals received 10 μl THF/MeOH (1:1 v/v) on the right ear and the test compound in the same solvent on the left ear. 1 hour later, the animals were challenged with 100 μg oxazolone in 10 μl acetone on each ear. Ear weights were measured 24 hours later. Percentage inhibition of the inflammatory swelling refers to the increase in weight of left ears (oxazolone plus compound in THF/MeOH) compared to untreated negative controls, as a proportion of the increase in weight of right ears (oxazolone only in THF/MeOH) over similar controls.

SMILES | % INHIBITION (acute inflammatory swelling, ear weight) (cantharidin mouse ear) | inhibition of DNA content (exudate cellular content) [1] | inhibition of exudate volume [1] | % INHIBITION (inflammatory swelling, ear weight) [2]
OCCNc1c2c(nc3cn[nH]c13)CCCC2 [Example 5, 9-(2-Hydroxyethylamino)-5,6,7,8-tetrahydro-1H-pyrazolo-[4,3-b]quinoline] | 91% | 31% | 36% | 
CC(C)CNc1c2c(nc3cn[nH]c13)CCC2 [Example 8, 8-Isobutylamino-5,6,7-trihydro-1H-cyclopenta[b]pyrazolo[3,4-e]pyridine] | 97% |  |  | 49%
CCCNc1c(CN)cnc2cn[nH]c12 [Example 9, 6-Aminomethyl-7-propylamino-1H-pyrazolo[4,3-b]pyridine] | 91% |  |  | 
CC(C)CNc1c2c(nc3cn[nH]c13)CCCC2 [Example 6, 9-Isobutylamino-5,6,7,8-tetrahydro-1H-pyrazolo[4,3-b]quinoline] | 97% |  |  | 66%
CCCCNc1c(C)cnc2cn[nH]c12 [Example 1, 7n-Butylamino-6-methyl-1H-pyrazolo[4,3-b]pyridine] | 95% |  |  | 
